From patent publication US20110038856A1, “METHODS OF TREATING NEOPLASTIC, AUTOIMMUNE AND INFLAMMATORY DISEASES” (Seattle Genetics, Inc., priority 2006, published 2011)

Columns and labels:
HL-60 cells = test: Mouse AML model, HL-60 cells injected intravenously; format: in vivo, mice
Protocol: Mice were implanted with an AML cell line, HL-60, as follows: 5 million HL-60 cells were injected intravenously. The mice were treated with lintuzumab (10 mg/kg, q4d×4, ip), cytarabine (1 mg/kg, 5 mg/kg or 25 mg/kg, q1d×10, or 50 mg/kg or 100 mg/kg, q2d×5, ip) or lintuzumab with cytarabine (dosed as described previously). Treatment began on day one.
To confirm the data of the in vitro study, mice were implanted with an AML cell line, HL-60, as follows: 5 million HL-60 cells were injected intravenously. […] Treatment began on day one.

[1] = system: primary human macrophages; test: Macrophage migration in response to chemoattractants (CytoSelect Cell Migration Assay); format: cell-based; conditions: 10% human serum or 20% conditioned media from RPMI 8226 cells; p<0.05; FIG. 21
Protocol: The migration of macrophages in response to challenge with plating media containing 10% human serum, 20% conditioned tumor cell media, or 50 ng/ml TGF-β, VEGF, TNF-α, or IFN-γ was evaluated using the CytoSelect Cell Migration Assay (Cell Biolabs, San Diego, Calif.). […] The study was stopped 18 hours later and migration was evaluated after dissociation of the cells from the membrane followed by detection with Cyquant GR dye.
The migration of macrophages in response to challenge with plating media containing 10% human serum or 20% conditioned tumor cell media was evaluated using the CytoSelect Cell Migration Assay (Cell Biolabs, San Diego, Calif.). […] The studies were stopped 18 h later and migration was evaluated after dissociation of the cells from the membrane followed by detection with Cyquant GR dye.

CD33 [2] = target: T1, CD33 (Homo sapiens, UniProt P20138); test: Binding of deglycosylated SGN-33 to CD33 by ELISA; conditions: data not shown
[3] = Effector function (ADCC or CDC activity) of deglycosylated antibody; format: cell-based; conditions: data not shown; unlike the intact antibody
CD33 [4] = target: T1, CD33; test: SGN-33 signaling in HL-60 cells, primary human monocytes and macrophages (CD33 immunoprecipitation, Western blot); format: cell-based; parameters: endogenous in cells; host or cells: HL-60 (ATCC); primary human CD14+ monocytes (Cambrex); macrophages derived from human PBMCs; conditions: HL-60 and monocytes; 30 minutes; FIG. 16
Protocol: Deglycosylation was confirmed by CE-SDS. […] Cell lysates were prepared and CD33 immunoprecipitated using an anti-CD33 rabbit polyclonal antibody (Santa Cruz Biotechnology, Santa Cruz, Calif.) prior to SDS PAGE gel electrophoresis. Western blot analyses of these samples were performed using the 4G10 phosphotyrosine antibody (Upstate Biotechnology, Temucula, Calif.), anti-CD33 antibody (NovoCastra, Norwell, Mass.), and anti-SHP-1 antibody (Calbiochem, San Diego, Calif.). Control lysate for SHP-1 was prepared from a B cell lymphoma cell line.

HEL 92.1.7 cells = test: Complement-dependent cytotoxicity (CDC) on MDR+ CD33-positive AML cell line; format: cell-based, human; conditions: HEL 92.1.7 cells preincubated with drug for two hours prior to anti-CD33 Ab; FIG. 4
Protocol: The purpose of this study was to determine whether the cytotoxic effects of an anti-CD33 antibody (HuM195) on AML cells could be enhanced by combination treatment with chemotherapeutic drugs. An MDR^+, CD33-positive AML cell line (HEL 92.1.7) was either untreated or preincubated with the indicated concentrations of thalidomide or 5-azacytidine for two hours prior to exposure to the anti-CD33 Ab. Cytotoxic activity was measured using a complement-dependent cytotoxicity (CDC) activity.

target cells = test: ADCC activity, standard 51Cr release assay with NK cells; format: cell-based; conditions: NK cells pre-treated for 2 to 3 h with drug prior to addition to target cells; FIG. 23
Protocol: Viable NK cells were pre-treated for 2 to 3 h with lenalidomide or thalidomide (as described in FIG. 23) prior to addition to target cells.

T1 sequence (P20138 18-364): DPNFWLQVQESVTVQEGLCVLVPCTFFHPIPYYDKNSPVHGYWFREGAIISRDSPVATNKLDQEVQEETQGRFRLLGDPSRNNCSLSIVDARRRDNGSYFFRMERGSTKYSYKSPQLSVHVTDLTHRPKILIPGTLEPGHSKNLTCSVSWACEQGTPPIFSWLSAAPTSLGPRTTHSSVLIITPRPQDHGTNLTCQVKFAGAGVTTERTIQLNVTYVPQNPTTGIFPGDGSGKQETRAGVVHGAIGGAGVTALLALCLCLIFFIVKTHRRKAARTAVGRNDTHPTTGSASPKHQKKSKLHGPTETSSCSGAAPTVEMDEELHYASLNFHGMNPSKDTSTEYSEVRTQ

Nc1ccn([C@@H]2O[C@H](CO)[C@@H](O)[C@@H]2O)c(=O)n1 [cytarabine, reference compound]
percent survival rates compared to untreated controls (HL-60 cells; low doses of cytarabine alone, ip, FIG. 22): increasing percent survival rates

deglycosylated SGN-33: SGN-33 treated with PN-glycosidase F; does not interact with Fc receptors
macrophage migration [1]: significantly reduced | binding to CD33 (CD33 [2]): confirmed | effector function, including ADCC or CDC activity [3]: did not mediate effector function | recruitment of SHP-1 to the CD33 complex (CD33 [4]): resulted in recruitment of SHP-1

Nc1ncn([C@@H]2O[C@H](CO)[C@@H](O)[C@H]2O)c(=O)n1 [5-azacytidine]
sensitivity of MDR+ AML cells to HuM195-mediated CDC activity (HEL 92.1.7 cells): enhanced the sensitivity

Nc1cccc2c1CN(C1CCC(=O)NC1=O)C2=O (stereo not shown) [lenalidomide, reference compound]
day by which mice were removed from study due to tumor progression (HL-60 cells; lenalidomide 25 mg/kg, qd×3, ip alone, control mice about day 60, FIG. 24): ~90 days | SGN-33 mediated ADCC (target cells): enhance SGN-33 mediated ADCC

O=C1CCC(N2C(=O)c3ccccc3C2=O)C(=O)N1 (stereo not shown) [thalidomide]
sensitivity of MDR+ AML cells to HuM195-mediated CDC activity (HEL 92.1.7 cells): enhanced the sensitivity | SGN-33 mediated ADCC (target cells): enhance SGN-33 mediated ADCC
